Source: ChEMBL document CHEMBL1132254, “Pharmacophore development for corticotropin-releasing hormone: new insights into inhibitor activity” (J Med Chem, 1999)

Target: T1, Corticotropin-releasing factor receptor 1 (Homo sapiens, UniProt P34998)
T1 sequence (P34998 whole entry): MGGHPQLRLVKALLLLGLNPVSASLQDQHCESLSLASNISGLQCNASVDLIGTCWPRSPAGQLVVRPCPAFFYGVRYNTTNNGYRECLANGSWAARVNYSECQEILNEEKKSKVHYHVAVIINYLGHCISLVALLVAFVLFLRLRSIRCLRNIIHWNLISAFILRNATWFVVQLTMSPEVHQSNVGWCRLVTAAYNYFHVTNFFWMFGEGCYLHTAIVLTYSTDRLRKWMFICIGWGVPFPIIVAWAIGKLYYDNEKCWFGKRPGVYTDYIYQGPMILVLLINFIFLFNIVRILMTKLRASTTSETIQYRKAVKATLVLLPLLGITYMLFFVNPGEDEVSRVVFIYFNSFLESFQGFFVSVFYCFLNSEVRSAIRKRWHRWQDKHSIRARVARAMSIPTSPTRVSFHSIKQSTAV
Test: Inhibition of [125I]CRH binding to human Corticotropin releasing factor receptor 1.

Row | Ki | Structure (SMILES)
1 | 8 µM | CCCN(CC1CC1)c1nc(C)nc(Nc2c(OC)cc(OC)cc2OC)n1
2 | 0.253 µM | CCCN(CC1CC1)c1cc(Nc2c(Cl)cc(Cl)cc2Cl)nc(C)n1
